Common to all, as to experiment: NCI tumour cell line growth inhibition, 48 h
Experiment [1] deals with Hs-578T.
For experiment [2], the system named is NCI-H522.
For experiment [3], the system named is T47D.
Experiment [4] concerns RXF 393.
Experiment [5] relates to OVCAR-3.
The test system of experiment [6] is SF-539.
Experiment [7] has as its system CCRF-CEM.
Experiment [8] has as its system SF-295.
Experiment [9] relates to MDA-N.
Experiment [10] concerns SN12C.
Experiment [11] deals with SW-620.
Experiment [12] concerns MOLT-4.
Experiment [13] relates to MDA-MB-231.
For experiment [14], the system named is SK-OV-3.
For experiment [15], the system named is NCI-H460.
Experiment [16] relates to SK-MEL-2.
In experiment [17] the test system is HCC 2998.
The subject of experiment [18] is NCI-H226.
The subject of experiment [19] is TK-10.
Experiment [20] concerns OVCAR-5.

The structures appear in SMILES notation.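 Method: 48-hour compound exposure of cells in 96-well plates, five concentrations, linear interpolation of endpoints. Here, GI50 denotes the concentration required for 50% inhibition of growth.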 The source made the active and inactive calls. No stated cut-off is given here; in the data, active = GI50 up to about 1.1 µM and inactive = higher. Some results are limits rather than exact numbers.

As to `CC(=O)Nc1ccc(-c2nc3ccccc3s2)cc1I`, the GI50 is 39.5 µM (inactive) in experiment [1]; 42.2 µM (inactive) in [2]; 1.85 µM (inactive) in experiment [3]; 14.8 µM (inactive) in experiment [4]; 11.7 µM (inactive) in experiment [5]; 14.3 µM (inactive) in experiment [6]. The GI50 in [7] is > 100 µM (inactive); in experiment [8], 29.4 µM (inactive); in experiment [9], > 100 µM (inactive); in [10], 36.6 µM (inactive); in experiment [11], > 100 µM (inactive); in experiment [12], > 100 µM (inactive). The GI50 in [13] is 17.5 µM (inactive); in experiment [14] it was 18.3 µM (inactive); in [15] it was 49.4 µM (inactive); in experiment [16], 50.4 µM (inactive); in experiment [17] it was 0.488 µM (active); in [18], 7.96 µM (inactive).
For the compound `Oc1cccc2cc(Cl)cnc12`, the GI50 in [1] is 6.93 µM (inactive); in experiment [19] it was 39.5 µM (inactive); in experiment [2], 2.75 µM (inactive); in experiment [3], 4.42 µM (inactive); in experiment [4], 12.3 µM (inactive); in experiment [5], 2.99 µM (inactive). For the same compound, the GI50 in experiment [6] is 10.3 µM (inactive); in experiment [7], 2.45 µM (inactive); in experiment [8] it was 3.39 µM (inactive); in experiment [9], 31.9 µM (inactive); in experiment [20], 28 µM (inactive); in [10] it was 7.33 µM (inactive). In addition, the GI50 in experiment [11] is 7.18 µM (inactive); in [12] it was 3.78 µM (inactive); in experiment [13], 9.68 µM (inactive); in experiment [14], 50.4 µM (inactive); in [15] it was 6.95 µM (inactive); in experiment [16] it was 40.8 µM (inactive). In addition, the values for the GI50 in experiment [17] and in experiment [18] were 27.1 µM (inactive) and 27.4 µM (inactive), respectively.
In the case of `CC1=CC2=C(OCO1)C(=O)c1ccccc1C2=O`, the GI50 was 1.67 µM (inactive) in [1]; 28.1 µM (inactive) in experiment [19]; 2.57 µM (inactive) in experiment [2]; 2.43 µM (inactive) in experiment [3]; 4.61 µM (inactive) in [4]; 5.4 µM (inactive) in experiment [5]. The GI50 is 6.14 µM (inactive) in experiment [6]; 10.1 µM (inactive) in [7]; 4.17 µM (inactive) in experiment [8]; 0.408 µM (active) in experiment [9]; 6.21 µM (inactive) in [20]; 5.68 µM (inactive) in [10]. Further, the GI50 in experiment [11] is 8.09 µM (inactive); in experiment [12], 6.84 µM (inactive); in experiment [13] it was 4.13 µM (inactive); in experiment [14], 13.3 µM (inactive); in [15] it was 7.11 µM (inactive); in experiment [16], 0.652 µM (active). Also, the GI50 was 30.5 µM (inactive) in experiment [17] and 10.4 µM (inactive) in experiment [18].
Consider `CN(C)c1ccc(/C=C(\C#N)c2nc(-c3cc4ccccc4oc3=O)cs2)cc1`, for which the GI50 is 13.7 µM (inactive) in experiment [1]; 8.95 µM (inactive) in experiment [19]; 6.75 µM (inactive) in experiment [2]; > 50 µM (inactive) in experiment [3]; 12.3 µM (inactive) in experiment [4]; 8.89 µM (inactive) in [6]. Moreover, the GI50 was > 50 µM (inactive) in experiment [7]; 10.6 µM (inactive) in experiment [8]; > 50 µM (inactive) in experiment [9]; > 50 µM (inactive) in experiment [20]; > 50 µM (inactive) in experiment [10]; > 50 µM (inactive) in experiment [11]. Besides, the GI50 in experiment [12] was > 50 µM (inactive); in [13], 11.6 µM (inactive); in experiment [14], 19.9 µM (inactive); in experiment [15], > 50 µM (inactive); in [16] it was 12 µM (inactive); in experiment [17] it was > 50 µM (inactive). In addition, the GI50 in experiment [18] is 13.6 µM (inactive).
For `O=C1CC(=O)NC(NN2C(=O)CSC2C(=O)c2ccco2)=N1` (centres undefined), the GI50 in experiment [1], in experiment [19], in experiment [2], in experiment [3], in [4] and in experiment [5] was > 100 µM (inactive) throughout. Moreover, the GI50 in experiment [6] is > 100 µM (inactive); in experiment [7] it was > 100 µM (inactive); in [8] it was 78.7 µM (inactive); in experiment [9], > 100 µM (inactive); in [20], > 100 µM (inactive); in experiment [10], > 100 µM (inactive). Moreover, the GI50 in experiment [11], in experiment [12], in experiment [13], in [14], in experiment [15] and in [16] was > 100 µM (inactive) in each case. The GI50 in experiment [17] and in experiment [18] was > 100 µM (inactive) in each case.
As for `C=C1[C@@H](O)C[C@@]23CC[C@@H]4[C@@]5(C)CC[C@@H](OC(C)=O)C(C)(C)[C@@H]5C[C@@H](OC5OC(COC(C)=O)C(O)C(O)C5O)[C@@]4(C)C2=CC[C@H]3[C@H]1C` (some centres undefined), the GI50 in experiment [1] is 5.66 µM (inactive); in experiment [19], 8.41 µM (inactive); in experiment [2] it was 5.35 µM (inactive); in experiment [3], 5.09 µM (inactive); in experiment [4] it was 4.27 µM (inactive); in experiment [5], 3.72 µM (inactive). Also, the GI50 in experiment [6] is 11.8 µM (inactive); in experiment [7] it was 2.97 µM (inactive); in [8], 4.06 µM (inactive); in experiment [9] it was 5.16 µM (inactive); in experiment [20], 2.22 µM (inactive); in [10], 7.98 µM (inactive). In addition, the GI50 in experiment [11] is 6.44 µM (inactive); in experiment [12], 2.5 µM (inactive); in [13], 5.47 µM (inactive); in experiment [14], 13.1 µM (inactive); in experiment [15], 4.13 µM (inactive); in experiment [16], 2.34 µM (inactive). Further, the GI50 was 1.75 µM (inactive) in [17] and 4.43 µM (inactive) in experiment [18].
Regarding `COc1cccc(Nc2n[nH]c(NS(=O)(=O)c3cc(C)c(Cl)cc3S)n2)c1`, the GI50 in experiment [1], in [19], in [2], in [3], in experiment [4] and in experiment [5] was > 100 µM (inactive) in each case. The GI50 in experiment [6], in experiment [7], in [8], in [9], in [20] and in experiment [10] was > 100 µM (inactive) throughout. In addition, the GI50 in experiment [11], in [12], in experiment [13], in [14], in experiment [15] and in [16] was > 100 µM (inactive) in each case. The GI50 in experiment [17] and in experiment [18] was > 100 µM (inactive) in each case.
For `Cc1ccc(S(=O)(=O)n2ccc(-c3ccc4ccn(S(=O)(=O)c5ccc(C)cc5)c4c3)c2)cc1`, the GI50 in experiment [1] was 27.9 µM (inactive); in [19] it was > 100 µM (inactive); in experiment [2], > 100 µM (inactive); in [3] it was > 100 µM (inactive); in experiment [4], 12.9 µM (inactive); in experiment [5] it was > 100 µM (inactive). Further, the GI50 in experiment [6], in [7], in [8], in experiment [9], in experiment [20] and in [10] was > 100 µM (inactive) each time. In addition, the GI50 in experiment [11], in [12], in [13], in [14], in [16] and in [17] was > 100 µM (inactive) throughout. The GI50 in experiment [18] was > 100 µM (inactive).
`CC1=NN(c2nc(N)nc(-c3cc4ccccc4oc3=N)n2)C(C)(C)C1`: the GI50 in [1] was 20.5 µM (inactive); in experiment [19], 23.4 µM (inactive); in [2], 20.6 µM (inactive); in [3], 16.1 µM (inactive); in experiment [4], 20.7 µM (inactive); in experiment [5], 17.7 µM (inactive). Also, the GI50 in experiment [6] was 19.5 µM (inactive); in [7], 20.7 µM (inactive); in experiment [8] it was 18.2 µM (inactive); in experiment [9], 16.5 µM (inactive); in experiment [20], 24.9 µM (inactive); in experiment [10], 19.5 µM (inactive). The GI50 in [12] is 12.9 µM (inactive); in [13] it was 20.1 µM (inactive); in experiment [14], 18.8 µM (inactive); in [15], 17.3 µM (inactive); in [16], 20 µM (inactive); in [17], 15 µM (inactive). Besides, the GI50 in experiment [18] was 14.7 µM (inactive).
`COc1ccc(OC)c2c(=O)cc(-c3ccccc3)[nH]c12`: the GI50 in experiment [1] is > 100 µM (inactive); in [19] it was > 100 µM (inactive); in [2], 7.45 µM (inactive); in [3], > 100 µM (inactive); in experiment [4] it was > 100 µM (inactive); in [5], > 100 µM (inactive). For the same compound, the GI50 in experiment [7], in experiment [8], in experiment [9], in experiment [20], in experiment [10] and in experiment [11] was > 100 µM (inactive) each time. In addition, the GI50 in [12], in [13], in [14], in experiment [15], in [16] and in experiment [17] was > 100 µM (inactive) throughout. Further, the GI50 in experiment [18] is > 100 µM (inactive).

These data come from ChEMBL document CHEMBL1201862, “PubChem BioAssay data set” (2004).
